Test results published in patent publication US9937194B1, “Compounds and methods for treating inflammatory diseases” (priority 2009, dated 2018).
Values after ≈ are worked out from the molar mass of the structure shown. Like-named read-outs stand apart in the source and are kept apart here.

Assays:
U937 cells = assay: H2O2-induced steroid insensitivity in U937 cells (dexamethasone IC50 on TNFα-induced IL-8); format: cell-based, human; details: highest concentration tested (100 μM); H2O2 200 μM
Procedure: (§1) Cytokine ELISA. LPS-induced IL-8, TNFα concentrations and TNFα-induced IL-8 concentrations are determined by sandwich ELISA according to the manufacturer's instructions (R&D Systems Europe). IC50 values for dexamethasone on IL-8 production are calculated using the computer program Prism 4.0 (GraphPad Software Inc., San Diego, Calif.) as a marker for steroid sensitivity.
Restoration of steroid sensitivity. U937 cells: U937 are treated with oxidative stress (H2O2, 200 μM or 0.15 dilution CSM (cigarette smoke conditioned medium)) and 4 hours later, stimulated with TNFα (10 ng/ml) in the presence of dexamethasone (10^−11-10^−6M). Supernatant and cells are collected 24 hrs after stimulation and IL-8 is measured by conventional ELISA. As the index of corticosteroid sensitivity, IC50 of dexamethasone is calculated. Test compounds are treated 20 min before oxidative stress treatment.
Effects of compounds on H2O2-induced steroid insensitivity in U937 cells. Cells stimulated with H2O2 (200 μM) overnight are incubated with compounds described herein for 30 min under H2O2 (200 μM) exposure. The cells are treated with dexamethasone (10^−11 to 10^−6 M) for 20 min, followed by the TNFα stimulation overnight. TNFα-induced IL-8 release is evaluated by ELISA and IC50 values for dexamethasone on IL-8 production are calculated using Prism. Data are expressed as fold changes against positive control treated with H2O2 only. Values represent means of four experiments±SEM. H2O2 exposure reduces dexamethasone sensitivity by approximately 4 fold based on calculated IC50 values of TNFα-induced IL-8 production.

TNFα = assay: LPS-induced TNFα release in PMA-differentiated U937 cells (ELISA); format: cell-based, human; details: for TNFα inhibition (%): test concentration not given
Procedure: as §1
(§2) Effects of compounds on LPS-induced IL-8 and TNFα release in PMA-differentiated U937 cells. PMA-differentiated macrophage-like cells are pretreated with compounds described herein for 1 hr, followed by LPS (100 ng/ml) stimulation for 4 hrs. LPS-induced IL-8 and TNFα release is evaluated by ELISA. Values represent means of three experiments±SEM.

[1] = format: cell-based
Procedure: The human monocytic cell line U937 and the human type II alveolar epithelial carcinoma cell line A549 were obtained from the American Type Culture Collection (ATCC, Rockville, Md.). PBMCs from COPD patients were obtained in Brompton hospital and separated by AccuSPIN (Sigma-Aldrich, Poole, UK). Cells were cultured in complete growth medium (Sigma-Aldrich) (RPMI 1640 for U937, PBMCs, and Dulbecco's modified essential medium (DMEM) for A549) supplemented with 10% fetal bovine serum (FBS) and 1% L-glutamine at 37° C. in a humidified atmosphere with 5% CO2. U937 were differentiated into an adherent macrophage-like morphology by exposure to PMA (50 or 100 ng/ml) for 48 hrs in complete growth medium. Cell viability was assessed microscopically by trypan blue staining. Cell toxicity was determined by MTT assay as needed. This study was approved by the ethics committee of the Royal Brompton Hospitals, and all subjects gave written informed consent.

IL-8 = assay: LPS-induced IL-8 release in PMA-differentiated U937 cells (ELISA); format: cell-based, human; details: for IL-8 inhibition (%): test concentration not given
Procedure: as §1, §2

MMP9 = assay: PMA-induced MMP9 expression in U937 cells (gelatin zymography); format: cell-based, human; details: test concentration not given; bracketed second value not explained
Procedure: Zymography. MMP9 enzyme activity is measured by gelatin zymography. 5 μl of supernatants were diluted with 5 μl Laemli sample buffer (Bio-Rad) and are loaded on a Novex® 10% Zymogram (Gelatin) gel (Invitrogen). After electrophoresis (90 min, 125 V, 35 mA, 5 W) gels are incubated with 1× Novex® zymogram renaturing buffer (Invitrogen) for 30 min at room temperature with gentle agitation. Gels are then rinsed in 1× Novex® zymogram developing buffer (Invitrogen) for 30 min at room temperature with gentle agitation prior to overnight incubation in the developing buffer at 37° C. After incubation the gels are stained using the colloidal blue staining kit (Invitrogen) with buffer containing 20% methanol and 70% distilled water to visualize the zymogen bands. Relevant band intensities are quantified by densitometric analysis using the UVP GelDoc-It system.
Effects of compounds on PMA-induced MMP9 expression in U937 cells. U937 cells are pretreated with compounds described herein for 1 hr, followed by PMA (50 ng/ml) treatment for 48 hrs. After 48 hrs supernatants are collected for zymography. MMP9 enzyme activity is measured by gelatin zymography. Data are expressed as fold changes against positive control treated with PMA only. Values represent means of three experiments±SEM.

Akt = assay: H2O2-induced phosphorylation of Akt in PMA-differentiated U937 cells (western blot); format: cell-based, human; details: PMA-differentiated U937; H2O2 1 mM 30 min
Procedure: Cell Lysis and Western Blotting. Whole cell protein extracts are prepared using modified RIPA buffer (50 mM Tris HCL pH 7.4, 0.5% NP-40, 0.25% Na-deoxycholate, 150 mM NaCl with freshly added complete protease (Roche). Phosphatase inhibitor (Active Motif) is also added when required. Protein concentration is determined using the Bio-Rad Protein Assay (Bio-Rad). Proteins are separated by SDS-PAGE under denaturing conditions, and electrotransferred to a nitrocellulose membrane (Amersham Biosciences, Amersham, U.K.) (Western blotting). The membranes are blocked in TBS containing 0.05% Tween 20 and 5% non-fat dried milk, and then incubated with anti-pAkt or Akt antibody followed by an horse radish peroxidase-conjugated secondary antibody (Dako UK Ltd., Ely, UK). Bound antibodies are visualized by ECL Plus (GE Healthcare UK Ltd., Little Chalfont, UK). The band density is calculated by densitometry (UVP Bioimaging Systems, Cambridge, UK) using Labworks software (Ultra-Violet Products, Cambridge, UK).
Effects of compounds on H2O2-induced phosphorylation of Akt in PMA-differentiated U937 cells. PMA-differentiated macrophage-like cells are pretreated with compounds described herein for 20 min. After H2O2 (1 mM) stimulation for 30 min, cells are lysed. Phosphorylation levels of Akt are measured by western blot. Data are calculated relative to total protein, and expressed as fold changes against positive control treated with H2O2 only. Values represent means of three or four experiments±SEM.

HDAC activity = assay: H2O2-induced reduction of HDAC activity in PMA-differentiated U937 cells; format: cell-based, human; details: for restoration of H2O2-reduced HDAC activity (%): test concentration not given, bracketed second value not explained
Procedure: In cell HDAC assay. Cells are incubated with Fluor de Lys™ substrate for 1 hr before lyses. Total HDAC activity from whole cell extracts is measured using the HDAC Fluorimetric Assay/Drug Discovery Kit (BIOMOL® International, Inc., Plymouth Meeting, Pa.).
HDAC expression: In cell HDAC activity assay: U937 is differentiated to macrophage type cells by PMA for 3 days. HDAC fluorescent substrate (Biomol) is added before exposure of oxidative stress (H2O2, 200 μM) or Tobacco smoke conditioned medium for 4 hrs. HDAC activity is measured (Biomol kit). Compounds at different concentrations are treated 20 min before oxidative stress treatment.
PMA-differentiated macrophage-like cells are pretreated with compounds described herein for 20 min. After H2O2 (200 μM) stimulation for 4 hrs, HDAC activity is assayed. Data are expressed as fold changes against positive control treated with H2O2 only. Values represent means of four experiments±SEM.

A/J mice exposed to LPS = assay: Anti-inflammatory activity in vivo: A/J mice exposed to LPS intranasally; details: intranasal, 1 hr before LPS challenge
S. pneumoniae 303 (ErmB) = assay: MIC; format: cell-based
[2] = tested on: S. aureus 96:11480 (MLS-I); assay: MIC; format: cell-based; design: unit not given beside the values
S. aureus MRSA 33591 = assay: MIC; format: cell-based
E. faecium ATCC 19434 = assay: MIC; format: cell-based
H. influenzae ATCC 49247 = assay: MIC; format: cell-based
[3] = tested on: S. aureus ATCC 29213 (MSSA) MLS-S; assay: MIC; format: cell-based
S. pneumoniae ATCC 49619 = assay: MIC; format: cell-based
H. influenzae LC002 = assay: MIC; format: cell-based
S. pneumoniae 163 (MefA) = assay: MIC; format: cell-based; details: in µg/mL
K. pneumonia 13883 = assay: MIC; format: cell-based; details: in µg/mL
S. pyogenes ATCC 19615 = assay: MIC; format: cell-based; details: in µg/mL

## CC[C@H]1OC(=O)[C@H](C)[C@@H](O[C@H]2C[C@@](C)(OC)[C@@H](O)[C@H](C)O2)[C@H](C)[C@@H](O[C@@H]2O[C@H](C)C[C@H](N(C)C)[C@H]2O)[C@](C)(O)C[C@@H](C)CN(C)[C@H](C)[C@@H](O)[C@]1(C)O [AZI, azithromycin, reference compound]
U937 cells
  restoration of dexamethasone sensitivity: None of ERY, CLR, or AZI restored dexamethasone sensitivity
TNFα; LPS 100 ng/ml 4 hrs
  inhibition of LPS-induced TNFα release compared with Example 33: did not show any inhibition at any concentration tested
TNFα
  TNFα inhibition (%): 31%
[1]; human
  Cell Toxicity (% cell death): −16%
IL-8; LPS 100 ng/ml 4 hrs
  inhibition of LPS-induced IL-8 release compared with Example 33: did not show any inhibition at any concentration tested
IL-8
  IL-8 inhibition (%): 44%
MMP9
  MMP9 inhibition (%): 33 (25) %
Akt
  inhibition of Akt phosphorylation compared with Example 33: only at much higher concentrations than Example 33
HDAC activity; PMA-differentiated U937, H2O2 200 μM 4 hrs
  restoration of HDAC activity compared with Example 33: only at much higher doses than Example 33
HDAC activity; PMA-differentiated U937, H2O2 200 μM, comparators at highest doses tested
  HDAC activity reached compared with untreated controls: only restore HDAC activity to levels comparable to untreated controls
HDAC activity
  restoration of H2O2-reduced HDAC activity (%): 34%
A/J mice exposed to LPS
  anti-inflammatory action in LPS-exposed A/J mice: have anti-inflammatory action

## CC[C@H]1OC(=O)[C@H](C)C(=O)[C@H](C)[C@@H](O[C@@H]2O[C@H](C)[C@@H](OC(C)=O)[C@H](NC(C)=O)[C@H]2OC(C)=O)[C@@](C)(OC)C[C@@H](C)C(=O)[C@H](C)[C@H]2N(CCCCn3cc(-c4ccccn4)nn3)C(=O)O[C@]12C [Example 23]
S. pneumoniae 303 (ErmB)
  MIC S. pneumoniae 303 (ErmB): 16 µg/mL (≈ 17.3 µM)
[2]
  MIC S. aureus 96:11480 (MLS-I): >64
S. aureus MRSA 33591
  MIC S. aureus MRSA 33591: > 64 µg/mL
TNFα
  TNFα inhibition (%): 76%
E. faecium ATCC 19434
  MIC E. faecium ATCC 19434: 16 µg/mL (≈ 17.3 µM)
H. influenzae ATCC 49247
  MIC H. influenzae ATCC 49247: > 64 µg/mL
[3]
  MIC S. aureus ATCC 29213 (MSSA) MLS-S: > 64 µg/mL
S. pneumoniae ATCC 49619
  MIC S. pneumoniae ATCC 49619: 4 µg/mL (≈ 4.31 µM)
[1]; test concentration not given
  Cell Toxicity (% cell death): 9%
IL-8
  IL-8 inhibition (%): 13%
MMP9
  MMP9 inhibition (%): 32 (31) %
HDAC activity
  restoration of H2O2-reduced HDAC activity (%): −13%
H. influenzae LC002
  MIC H. influenzae LC002: > 64 µg/mL
S. pneumoniae 163 (MefA)
  MIC S. pneumoniae 163 (MefA): 2
K. pneumonia 13883
  MIC K. pneumonia 13883: >64
S. pyogenes ATCC 19615
  MIC S. pyogenes ATCC 19615: 16
